Test results as given in patent US10526322B2, “Inhibitors of kidney-type glutaminase, GLS-1” (CORNELL UNIVERSITY, priority 2014, dated 2020).

What was measured:
WT GAC = target: T1, WT GAC (Mus musculus, UniProt D3Z7P3); experiment: In vitro photo cross linking of SU-22 and purification of the conjugate; assay type: binding; settings: 100 nM WT GAC, 10 μM SU-22, UV, A350/A280
T1 construct: (residues 72-603) was cloned into a pET23a vector; made in house
T1 sequence (D3Z7P3 72-603 isoform D3Z7P3-2): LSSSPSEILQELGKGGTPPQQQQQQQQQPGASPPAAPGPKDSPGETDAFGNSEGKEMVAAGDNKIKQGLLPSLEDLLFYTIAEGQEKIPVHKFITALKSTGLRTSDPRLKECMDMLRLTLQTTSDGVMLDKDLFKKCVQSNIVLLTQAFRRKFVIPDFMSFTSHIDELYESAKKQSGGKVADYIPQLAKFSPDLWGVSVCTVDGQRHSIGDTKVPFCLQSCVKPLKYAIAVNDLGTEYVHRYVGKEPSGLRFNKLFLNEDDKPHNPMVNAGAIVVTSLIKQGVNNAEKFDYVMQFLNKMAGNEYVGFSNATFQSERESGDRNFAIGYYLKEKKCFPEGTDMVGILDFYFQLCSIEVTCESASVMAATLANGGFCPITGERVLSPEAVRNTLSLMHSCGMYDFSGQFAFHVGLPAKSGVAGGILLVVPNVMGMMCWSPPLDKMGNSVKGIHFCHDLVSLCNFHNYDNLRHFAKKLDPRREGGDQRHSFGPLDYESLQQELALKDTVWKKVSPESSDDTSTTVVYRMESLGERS
Experimental: Conditions of in vitro cross linking of WT GAC, and the K316E/D391K/R459E GAC mutant were adapted for efficient cross linking and purification of the cross linked protein product. WT GAC and the K316E/D391K/R459E GAC mutant, both containing the N-terminal His-tag, were diluted to a concentration of 100 nM in 20 mM Tris-HCl (pH=8.6) 100 mM NaCl, upon which 10 μM of SU-22 was added. Following a preincubation time of 5 minutes, samples were exposed to UV light under a hand held 500 W UV lamp to initiate the photo cross linking. Immediately following, bovine serum albumin (BSA, Sigma) was added to a final concentration of 2 mg/mL to help stabilize the cross linked product and to bind excess un-reacted SU-22. To isolate the cross linked product, 2.5 mg cobalt agarose beads (Clontech) were added and the solution was gravity filtered. […] The purified cross linked protein was then concentrated using spin columns with a 30 kD molecular weight cutoff and quantified using UV-vis spectroscopy, where the protein was quantified using the A280 (ε280=38,850 M−1 cm−1) and the cross-linked SU-22 using the A350 (ε350=18,900 M−1 cm−1). […]

GAC = target: T2, GAC (Mus musculus, UniProt D3Z7P3); experiment: Real-time GAC enzyme activity assay coupled to glutamate dehydrogenase (NADH fluorescence); assay type: biochemical
T2 construct: (residues 72-603) was cloned into a pET23a vector; His-tag with thrombin cleavage site (N, cleaved yes); made in house
T2 sequence (D3Z7P3 72-603 isoform D3Z7P3-2): T1 sequence (D3Z7P3 72-603 isoform D3Z7P3-2)
Experimental: A plasmid encoding the mouse kidney-type glutaminase isoform 2 (GAC, GenBank Accession No. NP_001106854.1, which is hereby incorporated by reference in its entirety) (residues 72-603) was cloned into a pET23a vector containing an N-terminal histidine (His)-tag and thrombin cleavage site. The expressed protein was purified using Co^2+ affinity beads (Clontech), followed by His-tag cleavage with human thrombin (Haemetologic Technologies) overnight at 4° C., and subsequently purified by anion exchange (GE healthcare) and gel filtration chromatography. Purified GAC was stored in a high salt-containing buffer (20 mM Tris-HCl pH 8.5, 500 mM NaCl, 1 mM NaN3) at −80° C., following snap freezing in liquid N2 for long term use. Labeling recombinant GAC with small molecule probes was performed by exchanging 1.5 mg of enzyme into 50 mM HEPES, pH 7.2, and 100 mM NaCl (labeling buffer), using a PD10 desalting column (GE healthcare). The enzyme was then incubated with 50 μM (5-fold excess of enzyme) of either AlexaFluor 488 succinimidyl ester or QSY9 succinimidyl ester (Molecular Probes) for 1 hour at 4° C. After 1 hour, the labeling reaction was quenched with 150 mM Tris-HCl, pH 8.5, and unreacted probe was separated from labeled-enzyme using a PD10 desalting column, eluting labeled-GAC back into the high salt-containing buffer. The stoichiometry of labeling was determined using the probe manufacturer's reported molar absorptivity values and instructions. Briefly, the concentration of GAC was determined by first correcting absorbance at 280 nm (Abs280) for each probe, using the reported correction values (0.11 for AlexaFluor 488 and 0.23 for QSY-9) and their absorbance values at their absorbance maxima (495 nm and 562 nm, respectively). The corrected Abs280 was used along with the experimentally determined molar absorptivity of GAC (ε280=38,850 M−1 cm−1). AlexaFluor 488 and QSY-9 probes were quantified using their respective absorbance maxima and the manufacturer's reported molar absorptivity values (ε495=71,000 M−1 cm−1 and ε562=85,000 M−1 cm−1).
Real-time fluorescence monitoring of 968 binding and GAC activity through production of NADH was performed on a Varian Cary Eclipse Fluorometer, whereas small molecule inhibition and binding titrations were performed in a 96-well format in a Tecan Saphire absorbance and fluorescence plate reader. Samples for monitoring real-time binding of 968 to 488-GAC were prepared by adding 10 μL of varying concentrations of 968 prepared in DMSO to an equilibrated 1 mL sample of 10 nM 488-GAC, while observing 488 fluorescence (490 nm excitation/520 nm emission). Similarly, this method was replicated for monitoring real-time binding of 968 to mutant forms of GAC, namely 488-labeled GAC (GD391K) and 488-GAC (D391K, K316E, R459E). Real-time activity assays monitoring 968 binding and NADH production were prepared in 1 mL samples, where 10 units of glutamate dehydrogenase (Sigma) and 2 mM NAD+ (Sigma) were prepared in 50 mM Tris-Acetate, pH 8.5, 0.1 mM EDTA and equilibrated at 20° C. WT GAC (10 nM) was added and allowed to equilibrate 2 minutes before monitoring the fluorescence emission of 488-GAC (490 nm excitation, 520 nm emission) and NADH (340 nm excitation, 490 nm emission). Appropriate dilutions of 968 or BPTES prepared in DMSO were introduced after 30 seconds and allowed to equilibrate for 2 minutes before a 180 μL solution of K2HPO4 and glutamine was added to make a final concentration of 50 mM K2HPO4 and 20 mM glutamine, to initiate GAC activation. The activity of GAC was measured in a coupled assay, by monitoring the NADH produced by glutamate dehydrogenase, which converts the product of the glutaminase-catalyzed reaction, glutamate, to α-ketoglutarate and ammonia by reducing NAD+ to NADH. […]

## CC1(C)CC(=O)C2=C(C1)c1c(ccc3cc4ccccc4cc13)NC2c1ccc(N=[N+]=[N-])cc1 (stereo not drawn) [SU-22]
WT GAC
  ratio of cross linked SU-22 to protein: 0.52
GAC; in vitro inhibition, FIG. 9 / FIG. 11
  concentration inhibiting the GAC isoform compared with parent compound 968: lower concentration than the parent compound, 968

## CN(C)c1ccc(C2Nc3ccc4ccccc4c3C3=C2C(=O)CC(C)(C)C3)cc1Br (stereo not drawn) [Compound 968]
GAC; GAC pre-incubated with 968 before adding phosphate
  inhibition of enzyme activity: strongly inhibited
